Here are results for five compounds from patent US20230081357A1, “TOPICAL COMPOSITION COMPRISING CANNABIDIOL” (CURALEAF INTERNATIONAL LIMITED, priority 2020, published 2023).

The test system of data set [1] is reconstituted human epidermis (RHE). Kind of data set: In vitro irritation test on reconstituted human epidermis, MTT cell viability. In kind it is cell-based. Conditions: 60 minutes treatment, 24 hours incubation, % of negative control, 25 μg CBD-S5 or 30 μL 5% SDS. The protocol: The in vitro test consists of a topical exposure of the test substance on reconstituted human epidermis (RHE) followed by a cell viability test.
Cell viability is determined by the conversion of MTT (3-(4,5-dimethylthiazol-2-yl)-2,5-diphenyltetrazolium bromide) to a formazan blue salt, which is quantitatively measured after extraction from tissue. Conversion occurs via the mitochondrial enzyme succinate dehydrogenase, which is only active in living cells, causing the MTT tetrazole ring to open and formazan to form. Assessment of the viability of tissues exposed to the test substance compared to the negative control (treated with Dulbecco's phosphate buffered saline—DPBS) and the positive control (treated with sodium dodecyl sulphate—SDS) is used to predict skin irritation potential.
The reconstructed human epidermis model consists of normal human-derived epidermal keratinocytes cultured to recreate a highly differentiated multilayered human epidermis. […]
The optical density of the extracted formazan is determined spectrophotometrically at a wavelength of 570 nm using the μQUANT BIO TEK Microplate Spectrophotometer. Relative cell viability is calculated for each tissue as % of the mean optical density of the negative control tissues.

The subject of data set [2] is IL-1α. The data set can be described thus: Particulate (PM2.5) resistance test, IL-1α release by ELISA. Conditions: sample alone, 24 h at 37° C.; 30 μl CBD-S5, 30 μl SDS 5% or 20 μg PM2.5; untreated RHE (NC) = 100%. In kind it is cell-based, human. On the procedure:
After incubation at 37° C. for 24 h in a controlled atmosphere of 5% CO2, the cell viability of the RHE sample was assessed by MTT assay, as described in Example 5A, while the culture medium was collected and analyzed for IL-1α release by ELISA assay, using an EMIL1ALPHA kit (Invitrogen-Thermo Scientific) with the following procedure.
100 μl of medium from each treatment was transferred to wells coated with anti-human IL-1α and incubated for 2 hours at room temperature. At the end of the incubation, the medium was removed and the wells were washed 4 times with 1× Wash Buffer. 100 μl of biotinylated antibody was added to each well and incubated for 1 hour at room temperature. At the end, the wells were washed 4 times with 1× Wash Buffer, treated with 100 μl of Streptavidin-HRP solution for 45 minutes at room temperature and finally washed 4 times with 1× Wash Buffer. 100 μl of TMB substrate was added to each well and incubated for 10 minutes in the dark. Finally, 100 μl of stop solution was added to each well and spectrophotometric readings were taken at wavelengths of 450 nm and 550 nm using the μQUANT BIO TEK Microplate Spectrophotometer instrument.
Changes in IL-1α levels released from the RHE tissue after each treatment were expressed as % values compared to the untreated RHE (NC) used as control (100%).
For orientation: ELISA stands for enzyme-linked immunosorbent assay.

Data set [3] in a line: In vitro soothing efficacy, cell viability by MTT after SLS. The settings on record: human; read-out: % mean cell viability (standard deviation). In kind it is cell-based. On the procedure:
(§1) The assay assessed quantitatively the effects of the sample in protecting skin cells and in inhibiting the […] reaction caused by moderate irritating agents as sodium lauryl sulfate (SLS) by means of a multilayer in vitro skin cell model.
(§2) The inhibition of the SLS-induced release of IL-1α cytokine was investigated (through specific ELISA assay) following exposure to the tested substance and respect to skin untreated samples. Cell viability was determined by the MTT assay.
(§3) Both assays used a reconstructed artificial human skin model comprising normal human epidermal keratinocytes, growing as an integrated three-dimensional cell culture model, perfectly mimicking the human skin in vitro. […] The model was supplied by Episkin (Lion, Batch 20-RHE-041).
Epidermis was treated for 70 minutes with SLS at 0.30% in order to induce IL-1α synthesis and release. […] As negative control, two epidermis units were treated with phosphate buffer, while epidermis units treated for 70 minutes with SLS 0.30% were used as positive control. […]
Epidermis units were treated with 1 mg/ml MTT solution (3-[4,5-dimethylthiazol-2-yl]-2,5-diphenyl tetrazolium bromide) for 3 h at 37° C. […] Two aliquots of every sample were transferred to a 96 well plate for the reading. The absorbance (OD) was read at the wavelength of 570 nm with a colorimeter (Tecan model Infinite F200) equipped with a microplate reader. […]

Data set [4] deals with IL-1α. The data set can be described thus: In vitro soothing efficacy, SLS-induced IL-1α release by ELISA. In kind it is cell-based, human. Conditions: SLS 0.30% for 70 minutes, then CBD-S5 diluted at 2%, positive control = SLS only. On the procedure:
as §1, §2, §3
Epidermis was treated for 70 minutes with SLS at 0.30% in order to induce IL-1α synthesis and release. […] As negative control, two epidermis units were treated with phosphate buffer, while epidermis units treated for 70 minutes with SLS 0.30% were used as positive control. Test was carried out in two replicates.
For IL-1α assay, the culture medium has been collected at 6 and 24 hours. […] IL-1α was determined in the medium culture of treated and not treated epidermis, using a direct ELISA test (Enzyme-linked immunosorbent assay). […] Samples were read at 450 nm. […]
Cytokine concentration was determined using a standard curve. […]

Data set [5] deals with human hair dermal papilla cells (HHDPCs). Kind of data set: Mitogenesis in hair bulb cells, cell viability by MTT after starving. The data set is classed as cell-based. Conditions: positive control (human insulin), % of negative control. The protocol: (§4) The test is carried out on human hair dermal papilla cells (HHDPCs) with fibroblast-like morphology. Cells are cultured in MEM containing 10% FBS and antibiotics.
(§5) Cells have been seeded in 24 wells plates and allowed to grow for 24 h at 37° C. and 5% CO2. Cells underwent starvation in serum-free medium for 6 hours before treatment.
(§6) The niosome dispersion was dissolved directly in the medium culture. The test was carried out in three replicates.
(§7) After 24- and 48-hours exposure the cell viability and the total cellular protein content were assessed on separate plates. Untreated cells were used as negative controls (NC); cells treated with human insulin were used as positive control (PC).
The cell viability was assessed by incubating the tissues for 2 hours with MTT (3-[4,5-dimethylthiazol-2-yl]-2,5-diphenyl tetrazolium bromide) solution. The precipitated formazan was then extracted using DMSO and quantified spectrophotometrically. The absorbance at 570 nm (OD570) was measured with a microplate reader (Tecan, Infinite 200 PRO), deducting background at 650 nm (OD650).
The cell viability was expressed in percentage terms according to the following formula: […]

The test system is the same in data set [6]. The data set can be described thus: Mitogenesis in hair bulb cells, total cellular protein content (Bradford). In kind it is cell-based. Conditions: positive control (human insulin), % of negative control. The protocol:
as §4, §5, §6, §7
The total cellular protein content was tested according to Bradford method. Cells at the end of the treatment were washed twice with PBS and lysed by treatment with purified water at 4° C. Dye reagent was added to each sample. […] Reading was made at 595 nm with a colorimeter equipped with a plate-reader.
To quantify proteins, a standard plot with albumin was designed and the sample concentrations were determined on the bases of their absorbance values using the interpolation plot formula. Mean values of every set of data were calculated, and for each sample the percentage of increase in the protein synthesis was determined by comparison with the negative control (NC) according to the following formula: […]

The subject of data set [7] is transfected rat basophil cells (RBL-2H3 ATCC® CRL-2256™) expressing the IgE human receptor (FcRI). Kind of data set: Anti-itch activity: basophil degranulation, β-hexosaminidase release. The data set is classed as cell-based. Conditions: for % degranulation inhibition: basophils activated with anti-IgE receptor. From the text: In vivo, a basophil cell degranulation mediated by IgE triggers an immediate allergic reaction characterized by the quick release of pre-stored inflammatory mediators (histamine, leukotrienes, thromboxane, basophilic enzymes, hexosaminidases), causing redness, rashes, itchiness and local inflammatory reactions. The ability of a composition to inhibit the degranulation of basophil cells is an indicator of its capability to inhibit the above described symptoms and above them mainly itching.
The test is carried out on a cell line of transfected rat basophil cells (RBL-2H3 ATCC® CRL-2256™) expressing the IgE human receptor (FcRI). Cells are kept in RPMI containing 10% FCS and 2 mM glutamine.
Untreated cells were used as negative control for the spontaneous degranulation.
A positive control consisting in cells exposed to anti-human IgE receptor antibodies was used to evaluate the maximal degranulation level.
Cell lysates in 1% Triton were also analyzed in order to evaluate the highest possible release of the analyzed molecules.
The release of β-hexosaminidase during degranulation was monitored on RBL-SX38 cell supernatant added with […]-N-acetyl-β-D-glucosamine (Sigma-Aldrich) in 0.1 M citrate buffer (pH 6.2) and incubated at 37° C. for 120 min. The reaction was terminated using 0.1M carbonate buffer (pH 10), and the absorbance was read at 405 nm (OD405).
The supernatant of untreated cells was used as negative control. The maximal stimulation of RBL-SX38 was evaluated on a 1% Triton X-100 lysate of the cell monolayer.
Sodium hyaluronate in serial dilutions, as indicated in the following Table 11, was also used as a control of the inhibition of basophil degranulation.
The inhibition degranulation percentage of activated basophil with IgE receptor has been calculated with the following formula: […]

As to `CCCCCCCCCCCCOS(=O)(=O)[O-].[Na+]` [PC, sodium dodecyl sulphate], the “Mean relative viability (%)” value in data set [1] is 2.16%. In data set [2], the “Mean IL-1α release (%)” value was found to be 235.35%.
The viability is the share of living cells, or the viability signal relative to a control. With `CCCCCCCCCCCCOS(=O)(=O)[O-].[Na+]` [Positive control (PC), sodium lauryl sulfate], in data set [3], the viability at 70 min, 0.3 % is 47.4%.
On to “Positive control: positive control of Example 10: cells treated with human insulin”, for which the “IL-1α, 6 hours” value in data set [4] (culture medium at 6 hours) amounted to 105.57 pg/mL. Moreover, in data set [4] (culture medium at 24 hours), the “IL-1α, 24 hours” value turned out to be 597.32 pg/mL. For the same compound, the “% cell viability (ds)” value in data set [5] (24 hours) is given as 136.73%; in data set [5] (48 hours), 136.72 (8.16) %. For the same compound, the “% protein synthesis (ds)” value is listed as 140.65% in data set [6] (24 hours) and 149.65 (10.83) % in data set [6] (48 hours).
For the compound “Sodium hyaluronate [Hyaluronic acid (HA)]”, the OD405 in data set [7] (1.25 mg/ml + positive control (anti-human IgE receptor)) was 0.879; in data set [7] (1.25 mg/ml, sample alone (spontaneous degranulation)) it was 0.086; in data set [7] (2.5 mg/ml + positive control (anti-human IgE receptor)) it was 0.690; in data set [7] (2.5 mg/ml, sample alone (spontaneous degranulation)), 0.084; in data set [7] (5 mg/ml + positive control (anti-human IgE receptor)) it was 0.527; in data set [7] (5 mg/ml, sample alone (spontaneous degranulation)), 0.077. Also, the OD405 came out at 0.255 in data set [7] (10 mg/ml + positive control (anti-human IgE receptor)) and 0.065 in data set [7] (10 mg/ml, sample alone (spontaneous degranulation)). Further, the “% degranulation inhibition” value was 15.7% in data set [7] (1.25 mg/ml), 35.3% in data set [7] (2.5 mg/ml), 52.3% in data set [7] (5 mg/ml) and 80.6% in data set [7] (10 mg/ml).
Turning to Triton X-100, the OD405 in data set [7] (controls: maximal degranulation by anti-human IgE receptor antibodies, 1% Triton X-100 lysate, negative control 0.068) is 1.852.
